Patent US20250215039A1, “NUCLEOSIDES FOR TREATING CANCER” (PRIMEFOUR THERAPEUTICS, INC., priority 2022, published 2025)
Like-named read-outs stand apart in the source and are kept apart here.

Columns and labels:
cancer cell lines = experiment: Cancer cell proliferation activity (CellTiterGlo, 72 h); format: cell-based; conditions: 72 h, 72 h, read-out: IC50 cell proliferation
Method in brief: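 Readout is CellTiterGlo luminescence after 72 h compound exposure (0.1% DMSO final), started one day post-seeding, at 37 °C.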

[1] = target: human cytidine deaminase (CDA) (Homo sapiens, UniProt P32320); experiment: Metabolism by human cytidine deaminase (CDA), substrate absorbance at 290 nm
human cytidine deaminase (CDA), sequence (P32320 whole entry): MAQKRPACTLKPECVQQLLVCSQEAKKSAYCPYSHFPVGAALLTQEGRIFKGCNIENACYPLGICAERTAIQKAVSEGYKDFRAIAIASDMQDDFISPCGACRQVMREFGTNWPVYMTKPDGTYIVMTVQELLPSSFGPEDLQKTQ
Experimental: Transfer 7.2 μl of each of the substrate DMSO stock in step 2 into a 500 μl 96-Well V-bottom Microplate, clear SBS footprint, cat #P-96-450V-C
Add 352.8 μl assay buffer to the wells
For deaminated product compounds mix 4 μl product with 196 μl assay buffer
This was incubated at 37° C. for 1 h. 200 μl of this mixture was transferred into the assay plate to serve as the product control.
Product+buffer: mix 80 ul of the 2.5× intermediate product stocks (from step 3) with 120 ul assay buffer into product control (no enzyme) wells
Incubate the plate alongside the 20 nM CDA enzyme intermediate stock at 37° C. to temperature equilibrate reagents
Add 120 μl of the 20 nM enzyme mix into the Substrate+CDA wells and start reading at 290 nm every 30 s for about 60 min
50 and 200 uM substrate and product
In 100 mM Tris, pH 7.5, 100 mM KCl, 0.8% carryover DMSO
5 min incubation at 37° C.
Absorbance at 290 nm every 30 s at 37° C. for 1 h using FlexStation 3
Convert A290 to concentration of substrate remaining at time t after enzyme addition:
[formula] • where: • St=absorbance reading of: substrate+CDA wells at time t • So=Average absorbance reading of: substrate+buffer wells • Po=Average absorbance reading of: product+buffer wells • [S]t=initial substrate concentration • Use GraphPad to plot [substrate] against time to calculate initial velocity or slope (μMs^−1) i.e. the linear range of each curve • Express rate in s^−1 by dividing initial velocity by the total enzyme concentration.
Plot rate against [substrate] and fit data to standard Michaelis Menten equation to obtain kcat and KM parameters.

IC50 (cancer cell lines; 5637 (bladder)): 3.87 µM | IC50 (cancer cell lines; CLS439 (bladder)): > 50 µM | IC50 (cancer cell lines; HS729 (muscle)): 4.74 µM | IC50 (cancer cell lines; J82 (bladder)): > 50 µM | IC50 (cancer cell lines; JAR (placenta)): > 50 µM | IC50 (cancer cell lines; MT3 (breast)): 1.08 µM | IC50 (cancer cell lines; PANCI (pancreas)): > 50 µM | IC50 (cancer cell lines; PC3 (prostate)): 1.46 µM | IC50 (cancer cell lines; RD (muscle)): > 50 µM | IC50 (cancer cell lines; T24 (bladder)): 3.21 µM | IC50 (cancer cell lines; Homo sapiens, 22Rv1, 72 h, 22RV1 (prostate)): > 50 µM | IC50 (cancer cell lines; Homo sapiens, 786-0, 72 h, 786O (kidney)): > 50 µM | IC50 (cancer cell lines; Homo sapiens, A204, 72 h, A204 (muscle)): 0.17 µM | IC50 (cancer cell lines; Homo sapiens, A549, 72 h, A549 (lung)): 2.9 µM | IC50 (cancer cell lines; Homo sapiens, A673, 72 h, A673 (bone)): > 50 µM | IC50 (cancer cell lines; Homo sapiens, A2780, 72 h, A2780 (ovary)): 5.39 µM | IC50 (cancer cell lines; Homo sapiens, A-375, 72 h, A375 (skin)): > 50 µM | IC50 (cancer cell lines; Homo sapiens, A-431, 72 h, A431 (skin)): 3.8 µM | IC50 (cancer cell lines; Homo sapiens, ACHN, ACHN (kidney)): 2.85 µM | IC50 (cancer cell lines; Homo sapiens, ASPC1, 72 h, ASPC1 (pancreas)): > 50 µM | IC50 (cancer cell lines; Homo sapiens, BT-20, 72 h, BT20 (breast)): > 50 µM | IC50 (cancer cell lines; Homo sapiens, BXPC-3, 72 h, BXPC3 (pancreas)): > 50 µM | IC50 (cancer cell lines; Homo sapiens, C-33-A, C33A (endometrial)): 2.08 µM | IC50 (cancer cell lines; Homo sapiens, CAKI-1, 72 h, CAKI1 (kidney)): 1.07 µM | IC50 (cancer cell lines; Homo sapiens, COLO 205, 72 h, COLO205 (colon)): 3.03 µM | IC50 (cancer cell lines; Homo sapiens, COLO-678, 72 h, COLO678 (colon)): > 50 µM | IC50 (cancer cell lines; Homo sapiens, Ca-Ski, CASKI (endometrial)): > 50 µM | IC50 (cancer cell lines; Homo sapiens, Caco-2, 72 h, CACO2 (colon)): > 50 µM | IC50 (cancer cell lines; Homo sapiens, Calu-6, 72 h, CALU6 (lung)): 5.25 µM | IC50 (cancer cell lines; Homo sapiens, DLD-1, 72 h, DLD1 (colon)): > 50 µM | IC50 (cancer cell lines; Homo sapiens, DU-145, 72 h, DU145 (prostate)): 3.18 µM | IC50 (cancer cell lines; Homo sapiens, EFO-21, 72 h, EFO21 (ovary)): > 50 µM | IC50 (cancer cell lines; Homo sapiens, EJ-28, 72 h, EJ28 (bladder)): > 50 µM | IC50 (cancer cell lines; Homo sapiens, Granta-519, 72 h, GRANTA-519 (hematological)): 1.24 µM | IC50 (cancer cell lines; Homo sapiens, HCT-15, 72 h, HCT15 (colon)): 3.1 µM | IC50 (cancer cell lines; Homo sapiens, HCT-116, 72 h, HCT116 (colon)): 3.28 µM | IC50 (cancer cell lines; Homo sapiens, HEK293, 72 h, HEK293 (kidney)): > 50 µM | IC50 (cancer cell lines; Homo sapiens, HL-60, 72 h, HL-60 (hematological)): > 50 µM | IC50 (cancer cell lines; Homo sapiens, HT-29, 72 h, HT29 (colon)): > 50 µM | IC50 (cancer cell lines; Homo sapiens, HT-1080, 72 h, HT1080 (connective tissue)): 4.73 µM | IC50 (cancer cell lines; Homo sapiens, HeLa, HELA (endometrial)): > 50 µM | IC50 (cancer cell lines; Homo sapiens, HepG2, 72 h, HEPG2 (liver)): > 50 µM | IC50 (cancer cell lines; Homo sapiens, Hs-578T, HS578T (breast)): > 50 µM | IC50 (cancer cell lines; Homo sapiens, IGROV-1, 72 h, IGROV1 (ovary)): 4.31 µM | IC50 (cancer cell lines; Homo sapiens, IMR-90, 72 h, IMR90 (lung)): > 50 µM | IC50 (cancer cell lines; Homo sapiens, JEG-3, 72 h, JEG3 (placenta)): > 50 µM | IC50 (cancer cell lines; Homo sapiens, JIMT-1, 72 h, JIMT1 (breast)): 2.23 µM | IC50 (cancer cell lines; Homo sapiens, K562, 72 h, K-562 (hematological)): > 50 µM | IC50 (cancer cell lines; Homo sapiens, Kasumi 1, 72 h, KASUMI-1 (hematological)): 2.23 µM | IC50 (cancer cell lines; Homo sapiens, L-363, 72 h, L-363 (hematological)): > 50 µM | IC50 (cancer cell lines; Homo sapiens, LoVo, LOVO (colon)): 2.74 µM | IC50 (cancer cell lines; Homo sapiens, MCF7, 72 h, MCF7 (breast)): > 50 µM | IC50 (cancer cell lines; Homo sapiens, MDA-MB-231, 72 h, MDAMB231 (breast)): 2.23 µM | IC50 (cancer cell lines; Homo sapiens, MDA-MB-435, 72 h, MDAMB435 (skin)): 4.7 µM | IC50 (cancer cell lines; Homo sapiens, MDA-MB-436, 72 h, MDAMB436 (breast)): > 50 µM | IC50 (cancer cell lines; Homo sapiens, MDA-MB-468, 72 h, MDAMB468 (breast)): > 50 µM | IC50 (cancer cell lines; Homo sapiens, MG-63, 72 h, MG63 (bone)): > 50 µM | IC50 (cancer cell lines; Homo sapiens, MHH-ES-1, 72 h, MHHES1 (bone)): > 50 µM | IC50 (cancer cell lines; Homo sapiens, MIA PaCa-2, 72 h, MIAPACA2 (pancreas)): > 50 µM | IC50 (cancer cell lines; Homo sapiens, MINO, MINO (hematological)): 0.43 µM | IC50 (cancer cell lines; Homo sapiens, MV4-11, 72 h, MV4-11 (hematological)): 3.8 µM | IC50 (cancer cell lines; Homo sapiens, NCI-H23, 72 h, NCI-H23 (lung)): > 50 µM | IC50 (cancer cell lines; Homo sapiens, NCI-H82, 72 h, NCIH82 (lung)): > 50 µM | IC50 (cancer cell lines; Homo sapiens, NCI-H292, 72 h, NCIH292 (lung)): > 50 µM | IC50 (cancer cell lines; Homo sapiens, NCI-H460, 72 h, NCIH460 (lung)): 5.68 µM | IC50 (cancer cell lines; Homo sapiens, OVCAR-3, 72 h, OVCAR3 (ovary)): 2.57 µM | IC50 (cancer cell lines; Homo sapiens, OVCAR-4, 72 h, OVCAR4 (ovary)): > 50 µM | IC50 (cancer cell lines; Homo sapiens, PLC-PRF-5, 72 h, PLCPRF5 (liver)): > 50 µM | IC50 (cancer cell lines; Homo sapiens, Panc1005, 72 h, PANC1005 (pancreas)): > 50 µM | IC50 (cancer cell lines; Homo sapiens, Ramos, RAMOS (hematological)): 2.69 µM | IC50 (cancer cell lines; Homo sapiens, SAOS-2, 72 h, SAOS2 (bone)): 1.49 µM | IC50 (cancer cell lines; Homo sapiens, SF-268, 72 h, SF268 (brain)): 3.8 µM | IC50 (cancer cell lines; Homo sapiens, SF-295, 72 h, SF295 (brain)): > 50 µM | IC50 (cancer cell lines; Homo sapiens, SK-BR-3, 72 h, SKBR3 (breast)): 4.56 µM | IC50 (cancer cell lines; Homo sapiens, SK-HEP1, 72 h, SKHEP1 (liver)): 2.54 µM | IC50 (cancer cell lines; Homo sapiens, SK-LMS-1, 72 h, SKLMS1 (uterus)): > 50 µM | IC50 (cancer cell lines; Homo sapiens, SK-MEL-5, 72 h, SKMEL5 (skin; SKMELS [sic] in Table 9E)): > 50 µM | IC50 (cancer cell lines; Homo sapiens, SK-MEL-28, 72 h, SKMEL28 (skin)): > 50 µM | IC50 (cancer cell lines; Homo sapiens, SK-N-AS, SKNAS (brain)): > 50 µM | IC50 (cancer cell lines; Homo sapiens, SK-N-SH, SKNSH (brain)): > 50 µM | IC50 (cancer cell lines; Homo sapiens, SK-OV-3, 72 h, SKOV3 (ovary)): > 50 µM | IC50 (cancer cell lines; Homo sapiens, SNB-75, 72 h, SNB75 (brain)): > 50 µM | IC50 (cancer cell lines; Homo sapiens, SU-DHL10, 72 h, SU-DHL-10 (hematological)): 2.73 µM | IC50 (cancer cell lines; Homo sapiens, SU-DHL-6, 72 h, SU-DHL-6 (hematological)): 2.87 µM | IC50 (cancer cell lines; Homo sapiens, SW-620, 72 h, SW620 (colon)): 4.6 µM | IC50 (cancer cell lines; Homo sapiens, TE-671, 72 h, TE671 (muscle)): > 50 µM | IC50 (cancer cell lines; Homo sapiens, THP-1, 72 h, THP-1 (hematological)): 3.44 µM | IC50 (cancer cell lines; Homo sapiens, U2OS, U20S (bone; U2OS in Table 9E)): > 50 µM | IC50 (cancer cell lines; Homo sapiens, U-87 MG, U87MG (brain)): 2.91 µM | IC50 (cancer cell lines; Homo sapiens, UMUC3, 72 h, UMUC3 (bladder)): > 50 µM | IC50 (cancer cell lines; Homo sapiens, UO-31, 72 h, UO31 (kidney)): 8.13 µM | IC50 (cancer cell lines; Homo sapiens, WSU-NHL, WSU-NHL (hematological)): 1.67 µM | IC50 (cancer cell lines; NCI-H358M, NCIH358M (lung)): 1.04 µM | IC50 (cancer cell lines; PBMC, PBMC (hematological)): 2.61 µM | IC50 (cancer cell lines; RD-ES, RDES (bone)): > 50 µM | metabolism (deamination) by human CDA (line graph) ([1]; 12 nM CDA, 50 and 200 uM substrate, 37° C., pH 7.5, figure legends FIG. 4-9): not metabolized | substrate conversion by CDA (Inactive) ([1]; rate of substrate conversion at 200 μM, could not be fitted): Inactive
SMILES: C[C@]1(CO)O[C@@H](n2ccc(N)nc2=O)C(F)(F)[C@@H]1O [Cpd. No. 190, 4-amino-1-((2R,4R,5R)-3,3-difluoro-4-hydroxy-5-(hydroxymethyl)-5-methyltetrahydrofuran-2-yl)pyrimidin-2(1H)-one]
